This data set in a line: Wettability to binder: contact angle of binder liquid on molded product. In kind it is physicochemical. As to conditions: for Contact angle with respect to molded product: immediately after dropping about 10 μL. The source says: The bulk molded product of Compound X used in Example 1, and Compound X, lactose and crystalline cellulose in Table 1 (this mixture being referred to as a granulation component) were examined on the effect of the surfactant on the wettability to a binder (10% PVP) solution for the molded product. As a binding liquid, a solution of a binder alone (A), a solution of binder+a 1% polysorbate 80 (B), and a solution of a binder+1% sodium lauryl sulfate (C) were used, and contact angle thereof were measured by using the following method.
About 300 mg of the bulk or the granulation component was weighed, and compression molded using a plain mortar and pestle of 10.0 mmφ by an autograph (manufactured by Shimadzu Co.) under the conditions of a tableting pressure of 10 kN/pestle and a tableting speed of 10 mm/min, thus to obtain a bulk molded product or a molded product of the granulation components. Onto the flat portion of each of the molded products, about 10 μL of the above-described binder liquid was dropped using a Microsyringe (manufactured by ITO SEISAKUSHO CO., LTD.), and the solid and liquid interface immediately after dropping was photographed by a digital microscope (Keyence). After photographing, using an accompanying software, the angle between the liquid surface and the solid surface was measured and referred to as an […].

Molecules are shown by their SMILES.

For `COc1cccc([C@H]2O[C@H](CC(=O)Nc3cccc(CCC(=O)O)c3)C(=O)N(CC(C)(C)CO)c3ccc(Cl)cc32)c1OC` [Compound X, 3-[3-[[(3R,5S)-7-chloro-5-(2,3-dimethoxyphenyl)-1-(3-hydroxy-2,2-dimethylpropyl)-2-oxo-1,2,3,5-tetrahydro-4,1-benzoxazepine-3-yl]acetyl]aminophenyl]propionic acid], the “Contact angle with respect to molded product” value (from here on “Contact angle”) (binder liquid (A): binder (10% PVP) alone) was determined as 56 °, the “Contact angle” value (binder liquid (B): binder (10% PVP) + 1% polysorbate 80) is reported as 33 ° and the “Contact angle” value (binder liquid (C): binder (10% PVP) + 1% sodium lauryl sulfate) is 28 °. Where the note is “surfactant incorporated into the binder liquid”, the “Wettability to the binder liquid” value is listed as “remarkably improved”.

Source of the values: US20070122471A1, “Method of improving suitability for granulation” (Takeda Pharmaceutical Company Limited, priority 2003, published 2007).
